Test results: US7507727B2, “Substituted quinobenzoxazine analogs and methods of using thereof” (Cylene Pharmaceuticals, Inc., priority 2003, dated 2009)

Molecular target: c-Myc template DNA (c-myc quadruplex)
Experiment: Quadruplex binding / stop assay (Taq polymerase arrest, capillary electrophoresis)
Settings: read-out: Stop Data c-Myc μM; concentration at which 50% of the DNA was arrested (arrested:full-length 1:1)

Row | Structure (SMILES) | IC50 [µM]
1 | CN1CCN(CCCNC(=O)c2cn3c4cc5c(cc4oc4c(NCCC6CCCN6C)c(F)cc(c2=O)c43)c(=O)c2ccccc25)CC1 (stereo not shown) [compound 426] | 0.75
2 | CN1CCN(CCCNC(=O)c2cn3c4cc5c(cc4oc4c(N6CC[C@H](NC(=O)OC(C)(C)C)C6)c(F)cc(c2=O)c43)c(=O)c2ccccc25)CC1 [compound 427] | 0.75
3 | CC(C)(C)OC(=O)N[C@@H]1CCN(c2c(F)cc3c(=O)c(C(=O)NCCCN)cn4c3c2Oc2cc3ccccc3cc2-4)C1 [compound 428] | 0.75
4 | CC(C)(C)OC(=O)N[C@@H]1CCN(c2c(F)cc3c(=O)c(C(=O)NCCCN=C(N)N)cn4c3c2Oc2cc3ccccc3cc2-4)C1 [compound 429] | 0.75
5 | CNC1CCN(c2c(F)cc3c(=O)c(C(=O)NCCC4CCCN4C)cn4c3c2Oc2cc3ccccc3cc2-4)C1 (stereo not shown) [compound 430] | 0.75
6 | NC1CCN(c2c(F)cc3c(=O)c(C(=O)NCCCCN4CCCC4)cn4c3c2Oc2cc3ccccc3cc2-4)C1 (stereo not shown) [compound 431] | 0.75
7 | CN1CCCC1CCNC(=O)c1cn2c3c(c(NCCN4CCCCC4)c(F)cc3c1=O)Oc1cc3ccccc3cc1-2 (stereo not shown) [compound 432] | 0.75
8 | CN1CCCC1CCNC(=O)c1cn2c3c(c(NC4CCCNC4)c(F)cc3c1=O)Oc1cc3ccccc3cc1-2 (stereo not shown) [compound 433] | 0.75
9 | CN1CCCC1CCNC(=O)c1cn2c3c(c(N4CCC(N5CCCC5)CC4)c(F)cc3c1=O)Oc1cc3ccccc3cc1-2 (stereo not shown) [compound 434] | 0.75
10 | CN1CCCC1CCNC(=O)c1cn2c3c(c(NC4CN5CCC4CC5)c(F)cc3c1=O)Oc1cc3ccccc3cc1-2 (stereo not shown) [compound 435] | 0.75
11 | CCN(CC)CCCC(C)Nc1c(F)cc2c(=O)c(C(=O)NCCC3CCCN3C)cn3c2c1Oc1cc2ccccc2cc1-3 (stereo not shown) [compound 436] | 0.75
12 | CN(C)CCCNc1c(F)cc2c(=O)c(C(=O)NCCC3CCCN3C)cn3c2c1Oc1cc2ccccc2cc1-3 (stereo not shown) [compound 437] | 0.75
13 | CC1CCN(CCCNc2c(F)cc3c(=O)c(C(=O)NCCC4CCCN4C)cn4c3c2Oc2cc3ccccc3cc2-4)CC1 (stereo not shown) [compound 438] | 0.75
14 | CN1CCCC1CCNC(=O)c1cn2c3c(c(N(C)C4CCNC4)c(F)cc3c1=O)Oc1cc3ccccc3cc1-2 (stereo not shown) [compound 439] | 0.75
15 | CN1CCCC1CCNC(=O)c1cn2c3c(c(NCCCCN4CCCC4)c(F)cc3c1=O)Oc1cc3ccccc3cc1-2 (stereo not shown) [compound 440] | 0.75
16 | CN1CCCC1CCNC(=O)c1cn2c3c(c(NCC4CCN(C(=O)OC(C)(C)C)C4)c(F)cc3c1=O)Oc1cc3ccccc3cc1-2 (stereo not shown) [compound 441] | 0.75
17 | CN1CCCC1CCNC(=O)c1cn2c3c(c(N4CCC(c5ccccn5)C4)c(F)cc3c1=O)Oc1cc3ccccc3cc1-2 (stereo not shown) [compound 442] | 0.75
18 | CN1CCCC1CCNC(=O)c1cn2c3c(c(N4CCC(c5cccnc5)C4)c(F)cc3c1=O)Oc1cc3ccccc3cc1-2 (stereo not shown) [compound 443] | 0.75
19 | CC1(C)CC(NC(=O)c2cn3c4c(c(N5CCC(N)C5)c(F)cc4c2=O)Oc2cc4ccccc4cc2-3)CC(C)(C)N1 (stereo not shown) [compound 444] | 0.75
20 | CC1(C)CC(NC(=O)c2cn3c4c(c(N5CCC(N)C5)c(F)cc4c2=O)Oc2cc4ccccc4cc2-3)CC(C)(C)N1 (stereo not shown) [compound 445] | 0.75
21 | CN1CCCC1CCNC(=O)c1cn2c3c(c(NCCN4CCCC4)ccc3c1=O)Oc1cc3ccccc3cc1-2 (stereo not shown) [compound 446] | 0.75
22 | CC1(C)CC(NC(=O)c2cn3c4c(c(NCCN5CCCC5)ccc4c2=O)Oc2cc4ccccc4cc2-3)CC(C)(C)N1 [compound 447] | 0.75

Row | Structure (SMILES) | IC50 [µM]
23 | CN1CCCC1CCNc1ccc2c(=O)c(C(=O)NCCN3CCCC3)cn3c2c1Oc1cc2ccccc2cc1-3 (stereo not shown) [compound 448] | 0.75
24 | CN1CCCC1CCNC(=O)c1cn2c3c(c(NCCC4CCCN4C)ccc3c1=O)Oc1cc3ccccc3cc1-2 (stereo not shown) [compound 449] | 0.75
25 | CN(C)CCCCNC(=O)c1cn2c3c(c(NCCC4CCCN4C)ccc3c1=O)Oc1cc3ccccc3cc1-2 (stereo not shown) [compound 450] | 0.75
26 | CN1CCCC1CCNC(=O)c1cn2c3c(c(N4CCC(NC(=O)OC(C)(C)C)C4)ccc3c1=O)Oc1cc3ccccc3cc1-2 (stereo not shown) [compound 451] | 0.75
27 | CN(C)CCCCNC(=O)c1cn2c3c(c(N4CCC(NC(=O)OC(C)(C)C)C4)ccc3c1=O)Oc1cc3ccccc3cc1-2 (stereo not shown) [compound 452] | 0.75
28 | CN(C)CCCCNc1ccc2c(=O)c(C(=O)NCCN3CCOCC3)cn3c2c1Oc1cc2ccccc2cc1-3 [compound 453] | 0.75
29 | CN1CCN(CCCNc2ccc3c(=O)c(C(=O)NCCN4CCCC4)cn4c3c2Oc2cc3ccccc3cc2-4)CC1 [compound 454] | 0.75
30 | CN1CCN(CCCNc2ccc3c(=O)c(C(=O)NCCC4CCCN4C)cn4c3c2Oc2cc3ccccc3cc2-4)CC1 (stereo not shown) [compound 455] | 0.75
31 | CN(C)CCCCNC(=O)c1cn2c3c(c(NCCCN4CCN(C)CC4)ccc3c1=O)Oc1cc3ccccc3cc1-2 [compound 456] | 0.75
32 | NC1CCN(c2ccc3c(=O)c(C(=O)NCCCN4CCOCC4)cn4c3c2Oc2cc3ccccc3cc2-4)C1 (stereo not shown) [compound 457] | 0.75
33 | CN1CCCC1CCNC(=O)c1cn2c3c(c(C4C[C@@H](N)[C@H](c5ccccc5)C4)c(F)cc3c1=O)Oc1cc3ccccc3cc1-2 (stereo partly shown) [compound 458] | 0.75
34 | CN1CCN(CCCNC(=O)c2cn3c4c(c(N5CCC(N)C5)c(F)cc4c2=O)Oc2ccccc2-3)CC1 (stereo not shown) [compound 459] | 0.75
35 | CN(C)CCCCNC(=O)c1cn2c3c(c(N4CCC(N)C4)c(F)cc3c1=O)Oc1ccccc1-2 (stereo not shown) [compound 460] | 0.75
36 | CN1CCN(CCCNC(=O)c2cn3c4c(c(N5CC6CCCNC6C5)c(F)cc4c2=O)Oc2cc4ccccc4cc2-3)CC1 (stereo not shown) [compound 461] | 0.75
37 | O=C(NCCN1CCCC1)c1cn2c3c(c(N4CCC(c5cnccn5)C4)c(F)cc3c1=O)Oc1cc3ccccc3cc1-2 (stereo not shown) [compound 462] | 0.75
38 | CCOC(CCCNc1c(F)cc2c(=O)c(C(=O)NCCC3CCCN3C)cn3c2c1Oc1cc2ccccc2cc1-3)OCC (stereo not shown) [compound 463] | 0.75
39 | CN(C)c1cccc(CNc2c(F)cc3c(=O)c(C(=O)NCCC4CCCN4C)cn4c3c2Oc2cc3ccccc3cc2-4)c1 (stereo not shown) [compound 464] | 0.75
40 | CC1CCCC(C)N1CCCNC(=O)c1cn2c3c(c(N4CCC(N)C4)c(F)cc3c1=O)Oc1cc3ccccc3cc1-2 (stereo not shown) [compound 465] | 0.75
41 | NCCCNC(=O)c1cn2c3c(c(N4CCC(N)C4)c(F)cc3c1=O)Oc1cc3ccccc3cc1-2 (stereo not shown) [compound 466] | 0.75
42 | CN1CCC(NC(=O)c2cn3c4c(c(N5CCC(N)C5)c(F)cc4c2=O)Oc2cc4ccccc4cc2-3)CC1 (stereo not shown) [compound 467] | 0.75
43 | CN1CCC[C@@H]1CCNC(=O)c1cn2c3c(c(N4CCC(c5cnccn5)C4)c(F)cc3c1=O)Oc1cc3ccccc3cc1-2 (stereo partly shown) [compound 468] | 0.74
44 | CN1CCC[C@H]1CCNC(=O)c1cn2c3c(c(N4CCC(c5cnccn5)C4)c(F)cc3c1=O)Oc1cc3ccccc3cc1-2 (stereo partly shown) [compound 469] | 0.73

Row | Structure (SMILES) | IC50 [µM]
45 | CN(C)CCCCNC(=O)c1cn2c3c(c(NCCCCN(C)C)c(F)cc3c1=O)Oc1c-2ccc2ccccc12 [compound 470] | 0.64
46 | N=C(N)NCCNC(=O)c1cn2c3c(c(N4CC5CCCNC5C4)c(F)cc3c1=O)Oc1cc3ccccc3cc1-2 (stereo not shown) [compound 471] | 0.64
47 | CN(C)CCCCNC(=O)c1cn2c3c(c(NCCN4CCCC4)c(F)cc3c1=O)Oc1c-2ccc2ccccc12 [compound 473] | 0.62
48 | CN1CCCC1CCNc1c(F)cc2c(=O)c(C(=O)NCCCN3CCOCC3)cn3c2c1Oc1c-3ccc2ccccc12 (stereo not shown) [compound 476] | 0.58
49 | CN(C)CCCCNc1c(F)cc2c(=O)c(C(=O)NCCCN3CCN(C)CC3)cn3c2c1Oc1c-3ccc2ccccc12 [compound 478] | 0.53
50 | CN1CCCC1CCNc1c(F)cc2c(=O)c(C(=O)NCCN3CCCC3)cn3c2c1Oc1cc2ccccc2cc1-3 (stereo not shown) [compound 488] | 0.5
51 | CN1CCCC1CCNC(=O)c1cn2c3cc4c(=O)c5ccccc5c(=O)c4cc3oc3c(N4CCC(N)C4)c(F)cc(c1=O)c32 (stereo not shown) [compound 489] | 0.5
52 | CN(C)CCCCNC(=O)c1cn2c3cc4c(cc3oc3c(NCCN5CCOCC5)c(F)cc(c1=O)c32)c(=O)c1ccccc14 [compound 490] | 0.5
53 | CN1CCN(CCCNC(=O)c2cn3c4cc5c(=O)c6ccccc6c(=O)c5cc4oc4c(NCCN5CCCC5)c(F)cc(c2=O)c43)CC1 [compound 491] | 0.45
54 | CN1CCN(CCCNc2c(F)cc3c(=O)c(C(=O)NCCCN4CCOCC4)cn4c5cc6c(=O)c7ccccc7c(=O)c6cc5oc2c34)CC1 [compound 492] | 0.45
55 | CN1CCCC1CCNc1c(F)cc2c(=O)c(C(=O)N3CCOCC3)cn3c2c1Oc1cc2ccccc2cc1-3 (stereo not shown) [compound 495] | 0.42
56 | CN(C)CCCCNc1c(F)cc2c(=O)c(C(=O)NCCN3CCCC3)cn3c2c1Oc1c-3ccc2ccccc12 [compound 498] | 0.41
57 | NC1CCN(C(=O)c2cn3c4cc5c(=O)c6ccccc6c(=O)c5cc4oc4c(N5CCC(N)C5)c(F)cc(c2=O)c43)C1 (stereo not shown) [compound 499] | 0.4
58 | CN1CCCC1CCNC(=O)c1cn2c3c(c(NCCC4CCCN4C)c(F)cc3c1=O)Oc1c-2ccc2ccccc12 (stereo not shown) [compound 525] | 0.375
59 | CN1CCN(CCCNC(=O)c2cn3c4c(c(NCCC5CCCN5C)c(F)cc4c2=O)Oc2c-3ccc3ccccc23)CC1 (stereo not shown) [compound 549] | 0.375
60 | CN(C)CCCCNC(=O)c1cn2c3c(c(NCCC4CCCN4C)c(F)cc3c1=O)Oc1c-2ccc2ccccc12 (stereo not shown) [compound 550] | 0.375
61 | NC1CCN(c2c(F)cc3c(=O)c(C(=O)NCCCN4CCOCC4)cn4c5cc6c(=O)c7ccccc7c(=O)c6cc5oc2c34)C1 (stereo not shown) [compound 551] | 0.375
62 | O=C(NCCCN1CCOCC1)c1cn2c3cc4oc5cc([N+](=O)[O-])ccc5[nH]c4cc3oc3c(NCCN4CCCC4)c(F)cc(c1=O)c32 [compound 552] | 0.375
63 | CN1CCCC1CCNc1c(F)cc2c(=O)c(C(=O)NCCCN3CCOCC3)cn3c4cc5oc6cc([N+](=O)[O-])ccc6[nH]c5cc4oc1c23 (stereo not shown) [compound 553] | 0.375
64 | O=C(NCCN1CCCC1)c1cn2c3cc4oc5cc([N+](=O)[O-])ccc5[nH]c4cc3oc3c(NCCCN4CCOCC4)c(F)cc(c1=O)c32 [compound 554] | 0.375
